Columns and labels:
[1] = Wool removal from sheep pelt strips by PAA solutions; settings: 15 wt % urea, pH 8
Method: To evaluate the efficacy of PAA solution on removing the wool from a sheep pelt sample, the following experiment was carried out. Pelt strips (0.5 cm×3 cm) were cut and the wool fibers were trimmed to a length of 0.2 cm. Each solution (50 μL) was applied on separated pelt strip (half of the length treated and half of the length untreated). The pelt strip samples were allowed to stand for 10 min at room temperature ([…]). Excess liquid was removed by blotting and the samples were put inside a plastic tube for 30 min for further treatment and then washed with 50 μL of a 2% sodium lauryl ether sulfate (SLES) solution, rinsed with tap water (excess liquid was removed by blotting), and then dried under N2. The treatment was repeated until the wool fibers in treated area were all removed. Three different solutions were tested using this protocol, a) 0.6 wt % PAA, 15 wt % urea, with 0.5 wt % SLES in a pH 8, 50 mM phosphate buffer; b) 0.6 wt % PAA and 15 wt % urea in a pH 8, 50 mM phosphate buffer; c) 0.2 wt % PAA, 15 wt % urea, 0.5 wt % SLES in a pH 8, 50 mM phosphate buffer. At the 19th, 23rd, 24th application, respectively, the wool fibers on the samples treated with solution (a), (b) and (c) were completely removed. The addition of 0.5 wt % SLES seems to accelerate the wool removal process.

[2] = Single fiber tensile strength test of hair after chemical treatment (NAIR, PAA, bleach creams, reductive solution, triacetin/H2O2)
Source text: Since the quality and diameter of the hair samples are variables, hair sample pre-selection is used to achieve reasonable standard deviation in the tensile strength test. […] To prevent contamination, gloves were used while handing hair fiber samples.
Plastic transfer pipette tubes were cut to 2^7/8 inches (approximately 7.3 cm) by cutting off the bulb end. A hair bundle with 7 to 20 hair strands was carefully inserted into the tube keeping the hair fibers together by taping one end together and attached to the outside top of the wider end of the transfer pipette. This also helped to keep the strands in place once in the tube.
Solution/cream (200 μL) was added to a 2.0-mL microfuge tube. The hair sample was placed into tube by inserting the smaller end of transfer pipette inside tube with hair protruding out of the tip such that the hair strands formed a U shape and the free end of the strands hung loosely outside of the microfuge tube.
After certain application, hair samples were dried and equilibrated in the temperature and humidity control room for at least 12 hr, preferably 24 hr, before tensile strength test.
Hair samples were cut into pieces 4-inches in length. The denier number (liner mass density) of each hair fiber was measured by Textechno Vibromat Instrument (Textechno Herbert Stein GmbH & Co. KG; Germany). The hair fibers were tested according to ASTM D 3822-01 (“Tensile Properties of Single Textile Fibers”; ASTM International, West Conshohocken, Pa., 2001), on an Instron testing system (Instron Model 1122 Tester; Instron, Mass.) at about 70° F. (approximately 21° C.) and 65% relative humidity. The treated area of the hair sample was placed in the middle of the gauge and both ends were gripped on the test heads. Both fiber ends were attached on a piece of tape, respectively, for easy handling and gripping on the test heads. The test used 2-inch (5.1 cm) gauge length, […], and 1.2 inch/min (3 cm/min) pulling rate. The force-strain curve of the fiber was recorded during the test. The tenacity at maximum (gf/den) was calculated by dividing maximum force (gf) by denier number (den). Note that (gf/den)/11.33=Newtons/tex (N/tex).
Tenacity at maximum (tensile strength) of each hair sample was used to compare the integrity of the hair sample. A lower value of the tenacity at maximum is indicative of an improved weakening efficacy. A commercial depilatory cream, NAIR® (an alkali/potassium thioglycolate-based hair removal product from Church and Dwight Co., Inc., Princeton, N.J.), was used to set a target level for hair weakening. Based on the NAIR® product instruction, the recommended treatment time is 3 min to 10 min. Therefore, the tenacity at maximum of a hair sample treated with NAIR® between 3 min to 10 min was used to determine the target level. During hair treatment, about 200 μL of NAIR® cream was added to a 2-mL microfuge tube and hair samples were soaked in the cream for 3, 5 and 10 min. Hair samples were then rinsed with tape water to remove all the cream and then were dried under a stream of N2. […] Therefore, the desired level of hair weakening efficacy was targeted in the range from 0.8 gf/den to 1.3 gf/den under similar testing conditions.
Peracetic acid was added in 50 mM phosphate buffer to prepare solutions with different PAA concentrations at pH 6 and pH 8. A PAA solution (200 μL) was added to a 2-mL microfuge tube and hair samples were inserted for 2 hours. Hair samples were then rinsed with deionized water and dried under N2.
[…] […] The treatment was repeated for 7 times or 15 times, i.e., 4 hours and 8 hours of total exposure time, respectively.
The same multiple treatment as in Example 3 was applied with two commercially available hydrogen peroxide-based bleaching creams (SALLY HANSEN® bleach cream for face and SALLY HANSEN® extra strength bleach cream for face & body; Del Laboratories, Inc., Uniondale, N.Y.) and 6 wt % hydrogen peroxide (H2O2) in a similar pH 8, 20% urea, phosphate solution. […]

## CC(=O)OO [PAA, peracetic acid]
[1]; solution (a): 0.6 wt % PAA, 0.5 wt % SLES
  application at which the wool fibers were completely removed: 19 application
[1]; solution (b): 0.6 wt % PAA
  application at which the wool fibers were completely removed: 23 application
[1]; solution (c): 0.2 wt % PAA, 0.5 wt % SLES
  application at which the wool fibers were completely removed: 24 application
[2]; [PAA] 0.01 wt % then reductive solution (5 wt % potassium thioglycolate, pH 7.5), 20 min × 16, urea 10 wt %
  Ten. @ Max: 1.2 gf/den
[2]; [PAA] 0.01 wt %, 20 min × 16, urea 10 wt %, pH 8
  Ten. @ Max: 1.7 gf/den
[2]; [PAA] 0.02 wt % then reductive solution, 20 min × 16, urea 10 wt %
  Ten. @ Max: 1.6 gf/den
[2]; [PAA] 0.02 wt %, 20 min × 16, urea 10 wt %, pH 8
  Ten. @ Max: 1.7 gf/den
[2]; [PAA] 0.02 wt %, soaking 2 hr, pH 6
  Ten. @ Max: 1.7 gf/den
[2]; [PAA] 0.02 wt %, soaking 2 hr, urea 0 wt %
  Ten. @ Max: 1.6 gf/den
[2]; [PAA] 0.02 wt %, soaking 4 hr, urea 20 wt %
  Ten. @ Max: 1.7 gf/den
[2]; [PAA] 0.05 wt % then reductive solution, 20 min × 16, urea 10 wt %
  Ten. @ Max: 0.8 gf/den
[2]; [PAA] 0.05 wt %, 20 min × 16, urea 10 wt %, pH 8
  Ten. @ Max: 1.5 gf/den
[2]; [PAA] 0.10 wt % then reductive solution, 20 min × 8, urea 10 wt %
  Ten. @ Max: 0.9 gf/den
[2]; [PAA] 0.10 wt %, 20 min × 16, urea 10 wt %, pH 8
  Ten. @ Max: 1.1 gf/den
[2]; [PAA] 0.20 wt % then reductive solution, 20 min × 8, urea 10 wt %
  Ten. @ Max: 0.7 gf/den
[2]; [PAA] 0.20 wt %, 20 min × 16, urea 10 wt %, pH 8
  Ten. @ Max: 0.7 gf/den
[2]; [PAA] 0.20 wt %, 30 min × 8, urea 20 wt %, pH 8
  Ten. @ Max: 1.3 gf/den
[2]; [PAA] 0.20 wt %, 30 min × 16, urea 20 wt %, pH 8
  Ten. @ Max: 0.6 gf/den
[2]; [PAA] 0.20 wt %, soaking 2 hr, pH 6
  Ten. @ Max: 1.5 gf/den
[2]; [PAA] 0.20 wt %, soaking 2 hr, pH 8
  Ten. @ Max: 1.6 gf/den
[2]; [PAA] 0.20 wt %, soaking 2 hr, urea 20 wt %
  Ten. @ Max: 1.6 gf/den
[2]; [PAA] 0.20 wt %, soaking 4 hr, urea 20 wt %
  Ten. @ Max: 1.5 gf/den
[2]; [PAA] 0.60 wt %, 30 min × 8, urea 20 wt %, pH 8
  Ten. @ Max: 0.4 gf/den
[2]; [PAA] 0.60 wt %, 30 min × 16, urea 20 wt %, pH 8
  Ten. @ Max (hair integrity): NA: Not applicable as all hair strains in sample 6 lost their integrity before the 16th application and could not be analyzed.
[2]; [PAA] 0.60 wt %, soaking 2 hr, pH 6
  Ten. @ Max: 1.3 gf/den
[2]; [PAA] 0.60 wt %, soaking 2 hr, pH 8
  Ten. @ Max: 1.3 gf/den
[2]; [PAA] 0.60 wt %, soaking 2 hr, urea 0 wt %
  Ten. @ Max: 1.3 gf/den
[2]; [PAA] 0.60 wt %, soaking 2 hr, urea 20 wt %
  Ten. @ Max: 1.4 gf/den
[2]; [PAA] 0.60 wt %, soaking 4 hr, urea 0 wt %
  Ten. @ Max: 1.2 gf/den
[2]; [PAA] 0.60 wt %, soaking 4 hr, urea 20 wt %
  Ten. @ Max: 0.8 gf/den
[2]; [PAA] 2.00 wt %, soaking 2 hr, pH 6
  Ten. @ Max: 0.9 gf/den
[2]; [PAA] 2.00 wt %, soaking 2 hr, pH 8
  Ten. @ Max: 0.8 gf/den
[2]; longer soaking time and 20% urea
  effective PAA concentration: about 0.6 wt %
[2]; multiple treatments up to 16 times, 20 wt % urea
  effective PAA concentration to achieve target hair weakening level: 0.2 wt %
[2]; single application, 2 hours, pH 6 and pH 8
  PAA concentration needed to achieve the targeted hair weakening level: greater than 0.6 wt %
